target: T1, HePTP (Homo sapiens, UniProt P35236); assay: PTP inhibition assay (pNPP); assay type: biochemical; conditions: […]; HePTP
T1 sequence (P35236 1-360): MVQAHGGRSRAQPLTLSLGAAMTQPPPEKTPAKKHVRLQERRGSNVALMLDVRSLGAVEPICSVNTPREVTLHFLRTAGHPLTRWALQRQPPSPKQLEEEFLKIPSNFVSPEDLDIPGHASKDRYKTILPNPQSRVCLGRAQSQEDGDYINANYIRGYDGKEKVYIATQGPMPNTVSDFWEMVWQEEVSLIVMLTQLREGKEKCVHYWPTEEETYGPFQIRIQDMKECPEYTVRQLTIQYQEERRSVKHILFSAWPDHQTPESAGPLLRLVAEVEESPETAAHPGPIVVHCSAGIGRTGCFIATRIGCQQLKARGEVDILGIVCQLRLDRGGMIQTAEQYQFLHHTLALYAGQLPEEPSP

Which IC50 does the source give for `O=C(Nc1nc2ccccc2s1)C(Br)(c1ccccc1)S(=O)(=O)O` (stereo not drawn) [Compound L319-Br1-N15] here?
The IC50 was 0.2 µM.

For `O=C(N1CCC(c2ccc(Cl)c(Cl)c2)CC1)C(Br)(c1ccccc1)S(=O)(=O)O` (stereo not drawn) [Compound L319-Br1-N47], which IC50 is on record?
Its IC50 is 26 µM.

Which IC50 does the source give for `COc1ccc(CNC(=O)C(Br)(c2ccccc2)S(=O)(=O)O)c(OC)c1` (stereo not drawn) [Compound L319-Br1-N76] here?
Its IC50 is 21.7 µM.

target: T2, LMWPTP (Homo sapiens, UniProt P24666); assay: PTP inhibition assay (pNPP); assay type: biochemical; conditions: pNPP at Km, pH 7.0, 25° C.
T2 sequence (P24666 1-158): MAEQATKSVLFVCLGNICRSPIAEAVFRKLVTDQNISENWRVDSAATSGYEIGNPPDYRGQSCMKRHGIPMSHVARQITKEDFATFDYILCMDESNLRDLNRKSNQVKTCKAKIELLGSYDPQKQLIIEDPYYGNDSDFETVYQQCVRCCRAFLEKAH

How did the IC50 turn out when `O=C(CP(=O)(O)O)Nc1nc2ccccc2s1` [Compound L338N15] was run?
Its IC50 is 30 µM.

target: T3, SHP2 (Homo sapiens, UniProt Q06124); assay: SHP2 phosphatase inhibition assay (pNPP); assay type: biochemical; conditions: 200 μM compound concentration
T3 sequence (Q06124 224-528): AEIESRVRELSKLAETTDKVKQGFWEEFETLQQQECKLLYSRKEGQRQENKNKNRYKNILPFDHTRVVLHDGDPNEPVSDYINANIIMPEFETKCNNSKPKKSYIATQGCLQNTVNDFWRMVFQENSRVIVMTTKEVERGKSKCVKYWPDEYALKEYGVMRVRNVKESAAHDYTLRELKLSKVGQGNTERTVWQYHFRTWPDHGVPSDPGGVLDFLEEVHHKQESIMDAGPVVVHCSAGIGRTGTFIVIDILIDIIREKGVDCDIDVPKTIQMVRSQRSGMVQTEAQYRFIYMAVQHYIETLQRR

For `CC1(C)S[C@@H]2[C@H](NC(=O)C(c3ccccc3)S(=O)(=O)O)C(=O)N2[C@H]1C(=O)O` (stereo partly drawn) [sulbenicillin, reference compound], which “Inhibition of SHP2 at 200 μM” value is on record?
Its value is “no activity”.

same assay, conditions: Example 9: SHP2 catalytic domain 20 nM, pNPP 3 mM, pH 7.0, 25° C.; read-out: IC50 SHP2

`O=C(O)C(=O)Nc1ccc(NC(=O)C(c2ccccc2)S(=O)(=O)O)cc1` (stereo not drawn) [Lib-1, 2-oxo-2-((4-(2-phenyl-2-sulfoacetamido)phenyl)amino)acetic acid] was tested. Which IC50 did it give?
The IC50 was greater than 50 µM.

Which IC50 does the source give for `O=C(O)C(=O)Nc1cccc(NC(=O)C(c2ccccc2)S(=O)(=O)O)c1` (stereo not drawn) [Lib-2, 2-oxo-2-((3-(2-phenyl-2-sulfoacetamido)phenyl)amino)acetic acid] here?
Its IC50 is greater than 50 µM.

`O=C(O)C(=O)NCc1ccc(NC(=O)C(c2ccccc2)S(=O)(=O)O)cc1` (stereo not drawn) [Lib-3, 2-oxo-2-((4-(2-phenyl-2-sulfoacetamido)benzyl)amino)acetic acid] was tested. Which IC50 did it give?
The IC50 was greater than 50 µM.

For `O=C(O)C(=O)Nc1ccc(CNC(=O)C(c2ccccc2)S(=O)(=O)O)cc1` (stereo not drawn) [Lib-4, 2-oxo-2-((4-((2-phenyl-2-sulfoacetamido)methyl)phenyl)amino)acetic acid], which IC50 is on record?
Its IC50 is greater than 50 µM.

same assay, conditions: […]; SHP2; read-out: IC50 SHP2

Which IC50 does the source give for `O=C(Nc1nc2ccccc2s1)C(Br)(c1ccccc1)S(=O)(=O)O` (stereo not drawn) [Compound L319-Br1-N15] here?
Its IC50 is 13.2 µM.

For `O=C(N1CCC(c2ccc(Cl)c(Cl)c2)CC1)C(Br)(c1ccccc1)S(=O)(=O)O` (stereo not drawn) [Compound L319-Br1-N47], which IC50 is on record?
The IC50 was 22.8 µM.

For `COc1ccc(CNC(=O)C(Br)(c2ccccc2)S(=O)(=O)O)c(OC)c1` (stereo not drawn) [Compound L319-Br1-N76], which IC50 is on record?
Its IC50 is 9.9 µM.

same assay, conditions: pNPP at Km, pH 7.0, 25° C.; read-out: IC50 SHP2

For `O=C(Nc1ccc(NC(=O)C(c2ccccc2)S(=O)(=O)O)cc1)c1ccc(-c2ccc(Cl)cc2Cl)o1` (stereo not drawn) [Compound L319-04-B34], which IC50 is on record?
Its IC50 is 7.9 µM.

With `O=C(Nc1ccc(I)cc1)C(=O)Nc1ccc(NC(=O)C(c2ccccc2)S(=O)(=O)O)cc1` (stereo not drawn) [Compound L319-20-M24] as the compound, how does the IC50 read?
The IC50 was 1.5 µM.

Which IC50 does the source give for `O=C(Nc1ccc(NC(=O)C(c2ccccc2)S(=O)(=O)O)cc1)C(=O)Nc1ccc(-c2cccs2)cc1` (stereo not drawn) [Compound L319-20-M74] here?
Its IC50 is 0.9 µM.

Which IC50 does the source give for `O=C(NC1=NN=C(c2ccc(Br)cc2)C1)C(=O)Nc1ccc(NC(=O)C(c2ccccc2)S(=O)(=O)O)cc1` (stereo not drawn) [Compound L319-20-M78] here?
The IC50 was 0.7 µM.

Which IC50 does the source give for `O=C(Nc1ccc(NC(=O)C(c2ccccc2)S(=O)(=O)O)cc1)C(=O)Nc1ccc(-c2ccccc2)cc1` (stereo not drawn) [Compound L319-20-N08] here?
Its IC50 is 1.4 µM.

How did the IC50 turn out when `CC(C)c1ccc(NC(=O)C(=O)Nc2ccc(NC(=O)C(c3ccccc3)S(=O)(=O)O)cc2)cc1` (stereo not drawn) [Compound L319-20-N25] was run?
The IC50 was 2.3 µM.

For `Cc1c(Br)cc(NC(=O)C(=O)Nc2cccc(NC(=O)C(c3ccccc3)S(=O)(=O)O)c2)cc1Br` (stereo not drawn) [Compound L319-22-M34], which IC50 is on record?
Its IC50 is 5.7 µM.

`O=C(Nc1cccc(NC(=O)C(c2ccccc2)S(=O)(=O)O)c1)C(=O)Nc1ccc(OCc2ccccc2)c(Cl)c1` (stereo not drawn) [Compound L319-22-M50] was tested. Which IC50 did it give?
The IC50 was 7.5 µM.

With `O=C(Nc1cccc(Cc2ccccc2)c1)C(=O)Nc1cccc(NC(=O)C(c2ccccc2)S(=O)(=O)O)c1` (stereo not drawn) [Compound L319-22-M51] as the compound, how does the IC50 read?
The IC50 was 10 µM.

Which IC50 does the source give for `O=C(NCc1ccc(NC(=O)C(c2ccccc2)S(=O)(=O)O)cc1)C(=O)Nc1ccc(-c2cccs2)cc1` (stereo not drawn) [Compound L319-23-M74] here?
Its IC50 is 3.5 µM.

`O=C(Nc1ccc(CNC(=O)C(c2ccccc2)S(=O)(=O)O)cc1)C(=O)Nc1ccc(-c2cccs2)cc1` (stereo not drawn) [Compound L319-24-M74] was tested. Which IC50 did it give?
Its IC50 is 1.34 µM.

With `O=C(Nc1ccc(CNC(=O)C(c2ccccc2)S(=O)(=O)O)cc1)C(=O)Nc1ccccc1-c1nc2ccccc2[nH]1` (stereo not drawn) [Compound L319-24-M77] as the compound, how does the IC50 read?
The IC50 was 1.1 µM.
